Measurements reported in publication PMC3892053, “Pharmacokinetic/pharmacodynamic modeling for the determination of a cimicoxib dosing regimen in the dog” (BMC Veterinary Research, 2013).
Read-outs that look alike come from different tables or passages of the source.

Test: Plasma pharmacokinetics after single oral administration in beagle dogs (Study 1)
Format: in vivo, dog
Settings: mean ± SD; for half-life: beagle, dog, plasma, po, 2 mg/kg, read-out: terminal half-life (converted)
Protocol: The study was conducted according to a classical 2×2 crossover design. Briefly, in period one, half of the dog (3 males and 3 females), received a single oral dose of cimicoxib (approximately 2 mg/kg, one 20 mg capsules – Vetoquinol Lure france) 26.5 h after the induction of kaolin inflammation on the left paw; the other half dogs received a placebo treatment at the same time. In period 2, treatments were crossed over for each dog and inflammation was induced on the right paw. A wash-out delay of at least 5 weeks was applied between the two periods. The treatment (cimicoxib or placebo) was blinded to the investigators.
Blood samples (5 mL, heparinized tubes) were obtained from the jugular vein by direct puncture just before inflammation to perform a biochemical checkup of the animals at the beginning of the experiment. Time 0 was defined as the time of treatment administration. Blood samples (5 mL, heparinized tubes) were collected at time 0 (just before cimicoxib or placebo administration) and then at times 30, 60, 90 min, and, 4, 6, 9, 15, 30 and 48 hours post-treatment. Tubes were centrifuged at 3000 G and plasma samples were stored at -20°C.
Plasma samples were analyzed by a High Performance Liquid Chromatography (HPLC) method using ultraviolet (UV) detection. Briefly, an internal standard (UR-8877) and cimicoxib (UR-8880) were extracted from plasma by a solid liquid (methanol) extraction process using HLB Oasis cartridges (Waters). The extraction yield was about 90%. The HPLC apparatus consists of a pump system equipped with an automatic injector and an UV detector (242 nm). […] The validated limit of quantification was 0.01 μg/mL.
Pharmacokinetic and PK/PD modeling were performed by least-squares regression analysis using WinNonlin Professional software (WinNonlin® software, version 4.0.1, Pharsight Corporation, Mountain View, Ca, USA). […] The number of exponential (2 or 3) terms needed to obtain the best fit for each data set was determined by the Akaike’s information criteria and by inspecting the plot of residuals. […]

## COc1ccc(-c2c(Cl)ncn2-c2ccc(S(N)(=O)=O)cc2)cc1F [cimicoxib]
EM beagle dogs (n = 8)
  half-life: 4.6 ± 2.6 h
PM beagle dogs (n = 4)
  half-life: 8 ± 0.6 h
Oral 2 mg/kg, EM beagle dogs (n = 8)
  terminal half-life: 2.9 ± 0.9 h
